{"source": "patent US6632833B1", "about": "“2-(2-methylphenyl)-3,4-dihydro-2H-pyrrole derivatives” (Bayer Aktiengesellschaft, priority 1998, dated 2003)", "key": {"[1]": {"test_system": "all stages of the greenhouse red spider mite (Tetranychus urticae)", "experiment": "Tetranychus test (OP-resistant/dip treatment)", "format": "in vivo", "conditions": "after 7 days, dipped bean plants", "experimental": "Tetranychus test (OP-resistant/dip treatment)\nTo produce a suitable preparation of active compound, 1 part by weight of active compound is mixed with the stated amounts of solvent and emulsifier, and the concentrate is diluted with emulsifier-containing water to the desired concentration.\nBean plants (Phaseolus vulgaris) which are heavily infested by all stages of the greenhouse red spider mite (Tetranychus urticae) are dipped into a preparation of the active compound of the desired concentration.\nAfter the desired period of time, the action in % is determined. 100% means that all spider mites have been killed; 0% means that none of the spider mites have been killed."}, "HPLC log P determination": {"experiment": "HPLC log P determination", "format": "physicochemical", "conditions": "alkane/water partition, estimated by HPLC retention", "experimental": "* log P=[…] logarithm to base 10 of the alkane/water partition coefficient, determined by HPLC analysis using water/acetonitrile as mobile phase on 125×4.0 mm Kromasil […] (5 μm); flow rate: 1.5 ml/min."}, "[2]": {"test_system": "larvae of the mustard beetle (Phaedon cochleariae)", "experiment": "Phaedon larvae test", "format": "in vivo", "conditions": "dipped cabbage leaves", "experimental": "Phaedon larvae test [table] To produce a suitable preparation of active compound, 1 part by weight of active compound is mixed with the stated amounts of solvent and emulsifier, and the concentrate is diluted with emusifier-containing water to the desired concentration. Cabbage leaves (Brassica oleracea) are treated by being dipped into the preparation of active compound of the desired concentration and are populated with larvae of the mustard beetle (Phaedon cochleariae) while the leaves are still moist."}, "[3]": {"test_system": "caterpillars of the cotton bollworm (Heliothis armigera)", "experiment": "Heliothis armigera test", "format": "in vivo", "conditions": "concentration of active compound 0.004%; after 6 days; dipped soybean shoots", "experimental": "(§1) To produce a suitable preparation of active compound, 1 part by weight of active compound is mixed with the stated amounts of solvent and emulsifier, and the concentrate is diluted with emusifier-containing water to the desired concentration.\nSoybean shoots (Glycine max) are treated by being dipped into the preparation of active compound of the desired concentration and are populated with caterpillars of the cotton bollworm (Heliothis armigera) while the leaves are still moist.\n(§2) After the desired period of time, the kill in % is determined. 100% means that all caterpillars have been killed; 0% means that none of the caterpillars have been killed."}, "[4]": {"test_system": "caterpillars of the army-worm (Spodoptera frugiperda)", "experiment": "Spodoptera frugiperda test", "format": "in vivo", "conditions": "dipped cabbage leaves", "experimental": "Spodoptera frugiperda test\nas §1\nCabbage leaves (Brassica oleracea) are treated by being dipped into the preparation of active compound of the desired concentration and are populated with caterpillars of the army-worm (Spodoptera frugiperda) while the leaves are still moist.\nas §2"}, "[5]": {"test_system": "caterpillars of the diamond-back moth (Plutella xylostella)", "experiment": "Plutella test", "format": "in vivo", "conditions": "concentration of active compound 0.004%; after 6 days; dipped cabbage leaves", "experimental": "as §1\nCabbage leaves (Brassica oleracea) are treated by being dipped into the preparation of active compound of the desired concentration and are populated with caterpillars of the diamond-back moth (Plutella xylostella) while the leaves are still moist.\nas §2"}, "[6]": {"conditions": "concentration of active compound 0.004%, after 6 days"}, "[7]": {"conditions": "pH 2.3, read-out: HPLC log P (pH 2.3)"}, "[8]": {"conditions": "concentration of active compound 0.01%, after 7 days"}}, "note": "Where two headings read alike, the source gives them in different places."}
{"smiles": "Cc1ccccc1C1=NC(c2ccc(-c3ccc(OC(F)(F)F)cc3)cc2)CC1", "note": "(stereo not drawn) [Example I-9]", "values": [{"measurement": "kill (action in %)", "setting": "[1]; concentration of active compound 0.004%", "value": 98, "unit": "%"}, {"measurement": "chromatographic logP", "setting": "HPLC log P determination; neutral, HPLC, water/acetonitrile mobile phase, read-out: HPLC log P (neutral)", "value": 6.05}, {"measurement": "kill in %", "setting": "[2]; [6]", "value": 100, "unit": "%"}, {"measurement": "kill in %", "setting": "[3]", "value": 100, "unit": "%"}, {"measurement": "kill in %", "setting": "[4]; [6]", "value": 100, "unit": "%"}, {"measurement": "kill in %", "setting": "[5]", "value": 100, "unit": "%"}]}
{"smiles": "Cc1ccccc1C1=NC(c2ccc(-c3ccc(OC(F)(F)C(F)F)cc3)cc2)CC1", "note": "(stereo not drawn) [Example I-43]", "values": [{"measurement": "kill (action in %)", "setting": "[1]; concentration of active compound 0.01%", "value": 100, "unit": "%"}, {"measurement": "chromatographic logP", "setting": "HPLC log P determination; [7]", "value": 3.02}, {"measurement": "kill in %", "setting": "[2]; [8]", "value": 100, "unit": "%"}, {"measurement": "kill in %", "setting": "[4]; [8]", "value": 100, "unit": "%"}]}
{"smiles": "Cc1ccccc1C(=O)CCC(NC(=O)OC(C)(C)C)c1ccc(-c2ccc(OC(F)(F)C(F)F)cc2)cc1", "note": "(stereo not drawn) [Example VIII-43]", "values": [{"measurement": "chromatographic logP", "setting": "HPLC log P determination; [7]", "value": 5.05}]}
{"smiles": "O=C1CCC(c2ccc(-c3ccc(OC(F)(F)C(F)F)cc3)cc2)N1", "note": "(stereo not drawn) [Example XI-43]", "values": [{"measurement": "chromatographic logP", "setting": "HPLC log P determination; pH 2-3, read-out: HPLC log P (pH 2-3)", "value": 2.79}]}
